Source: PubChem BioAssay (NCI)
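Each compound was tested at five concentrations against cells in 96-well plates for 48 hours. TGI: concentration producing complete growth inhibition.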

Experiments:
Assay in all cases: NCI anticancer screen, dose series, 48 h
786-0 renal = tested on: 786-0 renal
A498 renal = tested on: A498 renal
A549 NSCLC = tested on: A549 NSCLC
ACHN renal = tested on: ACHN renal
BT-549 breast = tested on: BT-549 breast
CAKI-1 renal = tested on: CAKI-1 renal
CCRF-CEM leukemia = tested on: CCRF-CEM leukemia
COLO 205 colon = tested on: COLO 205 colon
DU-145 prostate = tested on: DU-145 prostate
EKVX NSCLC = tested on: EKVX NSCLC
HCC-2998 colon = tested on: HCC-2998 colon
HCT-116 colon = tested on: HCT-116 colon
HCT-15 colon = tested on: HCT-15 colon
HL-60(TB) leukemia = tested on: HL-60(TB) leukemia
HOP-62 NSCLC = tested on: HOP-62 NSCLC
HOP-92 NSCLC = tested on: HOP-92 NSCLC
HT29 colon = tested on: HT29 colon
IGROV1 ovarian = tested on: IGROV1 ovarian
K-562 leukemia = tested on: K-562 leukemia
KM12 colon = tested on: KM12 colon
M14 melanoma = tested on: M14 melanoma
MALME-3M melanoma = tested on: MALME-3M melanoma
MCF7 breast = tested on: MCF7 breast
MDA-MB-231 breast = tested on: MDA-MB-231 breast
MDA-MB-435 = tested on: MDA-MB-435
MDA-N = tested on: MDA-N
MOLT-4 leukemia = tested on: MOLT-4 leukemia
NCI-H226 lung = tested on: NCI-H226 lung
NCI-H23 lung = tested on: NCI-H23 lung
NCI-H460 lung = tested on: NCI-H460 lung
NCI-H522 lung = tested on: NCI-H522 lung
NCI/ADR-RES ovarian = tested on: NCI/ADR-RES ovarian
OVCAR-3 ovarian = tested on: OVCAR-3 ovarian
OVCAR-4 ovarian = tested on: OVCAR-4 ovarian
OVCAR-5 ovarian = tested on: OVCAR-5 ovarian
OVCAR-8 ovarian = tested on: OVCAR-8 ovarian
PC-3 prostate = tested on: PC-3 prostate
RPMI-8226 leukemia = tested on: RPMI-8226 leukemia
RXF 393 renal = tested on: RXF 393 renal
SF-268 CNS = tested on: SF-268 CNS
SF-295 CNS = tested on: SF-295 CNS
SF-539 CNS = tested on: SF-539 CNS
SK-MEL-2 melanoma = tested on: SK-MEL-2 melanoma
SK-MEL-28 melanoma = tested on: SK-MEL-28 melanoma
SK-OV-3 ovarian = tested on: SK-OV-3 ovarian
SN12C renal = tested on: SN12C renal
SNB-19 CNS = tested on: SNB-19 CNS
SR leukemia = tested on: SR leukemia
SW-620 colon = tested on: SW-620 colon
T-47D breast = tested on: T-47D breast
U251 CNS = tested on: U251 CNS
UACC-257 melanoma = tested on: UACC-257 melanoma
UACC-62 melanoma = tested on: UACC-62 melanoma
UO-31 renal = tested on: UO-31 renal
LOX IMVI melanoma = tested on: LOX IMVI melanoma
SK-MEL-5 melanoma = tested on: SK-MEL-5 melanoma
SNB-75 CNS = tested on: SNB-75 CNS
TK-10 renal = tested on: TK-10 renal

CC1(C)COC(c2ccccc2-c2ccccc2)=N1
TGI (786-0 renal): > 100 µM | TGI (A498 renal): > 100 µM | TGI (A549 NSCLC): > 100 µM | TGI (ACHN renal): > 100 µM | TGI (BT-549 breast): > 100 µM | TGI (CAKI-1 renal): > 100 µM | TGI (CCRF-CEM leukemia): > 100 µM | TGI (COLO 205 colon): > 100 µM | TGI (DU-145 prostate): > 100 µM | TGI (EKVX NSCLC): > 100 µM | TGI (HCC-2998 colon): > 100 µM | TGI (HCT-116 colon): > 100 µM | TGI (HCT-15 colon): > 100 µM | TGI (HL-60(TB) leukemia): > 100 µM | TGI (HOP-62 NSCLC): > 100 µM | TGI (HOP-92 NSCLC): > 100 µM | TGI (HT29 colon): > 100 µM | TGI (IGROV1 ovarian): > 100 µM | TGI (K-562 leukemia): > 100 µM | TGI (KM12 colon): > 100 µM | TGI (M14 melanoma): > 100 µM | TGI (MALME-3M melanoma): > 100 µM | TGI (MCF7 breast): > 100 µM | TGI (MDA-MB-231 breast): > 100 µM | TGI (MDA-MB-435): > 100 µM | TGI (MDA-N): > 100 µM | TGI (MOLT-4 leukemia): > 100 µM | TGI (NCI-H226 lung): > 100 µM | TGI (NCI-H23 lung): > 100 µM | TGI (NCI-H460 lung): > 100 µM | TGI (NCI-H522 lung): > 100 µM | TGI (NCI/ADR-RES ovarian): > 100 µM | TGI (OVCAR-3 ovarian): > 100 µM | TGI (OVCAR-4 ovarian): > 100 µM | TGI (OVCAR-5 ovarian): > 100 µM | TGI (OVCAR-8 ovarian): > 100 µM | TGI (PC-3 prostate): > 100 µM | TGI (RPMI-8226 leukemia): > 100 µM | TGI (RXF 393 renal): > 100 µM | TGI (SF-268 CNS): > 100 µM | TGI (SF-295 CNS): > 100 µM | TGI (SF-539 CNS): > 100 µM | TGI (SK-MEL-2 melanoma): > 100 µM | TGI (SK-MEL-28 melanoma): > 100 µM | TGI (SK-OV-3 ovarian): > 100 µM | TGI (SN12C renal): > 100 µM | TGI (SNB-19 CNS): > 100 µM | TGI (SR leukemia): > 100 µM | TGI (SW-620 colon): > 100 µM | TGI (T-47D breast): > 100 µM | TGI (U251 CNS): > 100 µM | TGI (UACC-257 melanoma): > 100 µM | TGI (UACC-62 melanoma): > 100 µM | TGI (UO-31 renal): > 100 µM

COC(=O)C1=CC(=O)OC1(OO)c1ccc(Br)cc1 (stereo not drawn)
TGI (786-0 renal): > 100 µM | TGI (A549 NSCLC): > 100 µM | TGI (ACHN renal): > 100 µM | TGI (BT-549 breast): > 100 µM | TGI (CAKI-1 renal): > 100 µM | TGI (CCRF-CEM leukemia): > 100 µM | TGI (COLO 205 colon): > 100 µM | TGI (DU-145 prostate): > 100 µM | TGI (EKVX NSCLC): > 100 µM | TGI (HCC-2998 colon): > 100 µM | TGI (HCT-116 colon): > 100 µM | TGI (HCT-15 colon): > 100 µM | TGI (HL-60(TB) leukemia): > 100 µM | TGI (HOP-92 NSCLC): > 100 µM | TGI (HT29 colon): > 100 µM | TGI (IGROV1 ovarian): > 100 µM | TGI (K-562 leukemia): > 100 µM | TGI (KM12 colon): > 100 µM | TGI (LOX IMVI melanoma): > 100 µM | TGI (M14 melanoma): > 100 µM | TGI (MALME-3M melanoma): > 100 µM | TGI (MCF7 breast): > 100 µM | TGI (MDA-MB-231 breast): > 100 µM | TGI (MDA-MB-435): > 100 µM | TGI (MDA-N): > 100 µM | TGI (MOLT-4 leukemia): > 100 µM | TGI (NCI-H226 lung): > 100 µM | TGI (NCI-H23 lung): > 100 µM | TGI (NCI-H460 lung): > 100 µM | TGI (NCI-H522 lung): > 100 µM | TGI (NCI/ADR-RES ovarian): > 100 µM | TGI (OVCAR-3 ovarian): > 100 µM | TGI (OVCAR-4 ovarian): > 100 µM | TGI (OVCAR-5 ovarian): > 100 µM | TGI (OVCAR-8 ovarian): > 100 µM | TGI (PC-3 prostate): > 100 µM | TGI (RXF 393 renal): > 100 µM | TGI (SF-295 CNS): > 100 µM | TGI (SF-539 CNS): > 100 µM | TGI (SK-MEL-2 melanoma): > 100 µM | TGI (SK-MEL-28 melanoma): > 100 µM | TGI (SK-MEL-5 melanoma): > 100 µM | TGI (SK-OV-3 ovarian): > 100 µM | TGI (SN12C renal): > 100 µM | TGI (SNB-19 CNS): > 100 µM | TGI (SNB-75 CNS): > 100 µM | TGI (SR leukemia): > 100 µM | TGI (SW-620 colon): > 100 µM | TGI (T-47D breast): > 100 µM | TGI (TK-10 renal): > 100 µM | TGI (U251 CNS): > 100 µM | TGI (UACC-257 melanoma): > 100 µM | TGI (UACC-62 melanoma): > 100 µM | TGI (UO-31 renal): > 100 µM

C[Si](C)(C)CNC(=O)OCc1ccccc1
TGI (786-0 renal): > 100 µM | TGI (A498 renal): > 100 µM | TGI (A549 NSCLC): > 100 µM | TGI (ACHN renal): > 100 µM | TGI (BT-549 breast): > 100 µM | TGI (CAKI-1 renal): > 100 µM | TGI (CCRF-CEM leukemia): > 100 µM | TGI (COLO 205 colon): > 100 µM | TGI (DU-145 prostate): > 100 µM | TGI (EKVX NSCLC): > 100 µM | TGI (HCC-2998 colon): > 100 µM | TGI (HCT-116 colon): > 100 µM | TGI (HCT-15 colon): > 100 µM | TGI (HL-60(TB) leukemia): > 100 µM | TGI (HOP-62 NSCLC): > 100 µM | TGI (HOP-92 NSCLC): > 100 µM | TGI (HT29 colon): > 100 µM | TGI (IGROV1 ovarian): > 100 µM | TGI (K-562 leukemia): > 100 µM | TGI (KM12 colon): > 100 µM | TGI (LOX IMVI melanoma): > 100 µM | TGI (M14 melanoma): > 100 µM | TGI (MCF7 breast): > 100 µM | TGI (MDA-MB-231 breast): > 100 µM | TGI (MDA-MB-435): > 100 µM | TGI (MDA-N): > 100 µM | TGI (NCI-H226 lung): > 100 µM | TGI (NCI-H23 lung): > 100 µM | TGI (NCI-H460 lung): > 100 µM | TGI (NCI-H522 lung): > 100 µM | TGI (NCI/ADR-RES ovarian): > 100 µM | TGI (OVCAR-3 ovarian): > 100 µM | TGI (OVCAR-4 ovarian): > 100 µM | TGI (OVCAR-5 ovarian): > 100 µM | TGI (OVCAR-8 ovarian): > 100 µM | TGI (PC-3 prostate): > 100 µM | TGI (RPMI-8226 leukemia): > 100 µM | TGI (SF-268 CNS): > 100 µM | TGI (SF-295 CNS): > 100 µM | TGI (SF-539 CNS): > 100 µM | TGI (SK-MEL-2 melanoma): > 100 µM | TGI (SK-MEL-28 melanoma): > 100 µM | TGI (SK-MEL-5 melanoma): > 100 µM | TGI (SK-OV-3 ovarian): > 100 µM | TGI (SN12C renal): > 100 µM | TGI (SNB-19 CNS): > 100 µM | TGI (SNB-75 CNS): > 100 µM | TGI (SR leukemia): > 100 µM | TGI (SW-620 colon): > 100 µM | TGI (T-47D breast): 72.4 µM | TGI (TK-10 renal): > 100 µM | TGI (U251 CNS): > 100 µM | TGI (UACC-257 melanoma): > 100 µM | TGI (UACC-62 melanoma): > 100 µM | TGI (UO-31 renal): > 100 µM
